# Results published in ChEMBL document CHEMBL4513141, “CO-ADD screening of NIH (USA) - Clinical Collection” (2021).
# Where a name gives a salt, the structure may show the parent alone.
# Legend:
# Acinetobacter baumannii = test: microbe, parasite or virus in culture; details: ATCC 19606, 18 h, ASSAY_TEST Inhibition of Bacterial Growth, detection method Absorption (OD600), MEDIA CAMHB, plate type 384well, NBS, CORNING #3640
# Description: Antibacterial activity against Acinetobacter baumannii ATCC 19606 (CO-ADD:GN_034); MIC in CAMBH media using NBS plates, by OD600
# Klebsiella pneumoniae = test: microbe, parasite or virus in culture; details: ATCC 700603, 18 h, ASSAY_TEST Inhibition of Bacterial Growth, detection method Absorption (OD600), MEDIA CAMHB, plate type 384well, NBS, CORNING #3640
# Description: Antibacterial activity against Klebsiella pneumoniae MDR ATCC 70063 (CO-ADD:GN_003); MIC in CAMBH media using NBS plates, by OD(600)
# Escherichia coli = test: microbe, parasite or virus in culture; details: ATCC 25922, 18 h, ASSAY_TEST Inhibition of Bacterial Growth, detection method Absorption (OD600), MEDIA CAMHB, plate type 384well, NBS, CORNING #3640
# Description: Antibacterial activity against Escherichia coli ATCC 25922 (CO-ADD:GN_001); MIC in CAMBH media using NBS plates, by OD(600)
# Pseudomonas aeruginosa = test: microbe, parasite or virus in culture; details: ATCC 27853, 18 h, ASSAY_TEST Inhibition of Bacterial Growth, detection method Absorption (OD600), MEDIA CAMHB, plate type 384well, NBS, CORNING #3640
# Description: Antibacterial activity against Pseudomonas aeruginosa ATCC 27853 (CO-ADD:GN_042); MIC in CAMBH media using NBS plates, by OD(600)
# Staphylococcus aureus = test: microbe, parasite or virus in culture; details: ATCC 43300, 18 h, ASSAY_TEST Inhibition of Bacterial Growth, detection method Absorption (OD600), MEDIA CAMHB, plate type 384well, NBS, CORNING #3640
# Description: Antibacterial activity against Staphylococcus aureus MRSA ATCC 43300 (CO-ADD:GP_020); MIC in CAMBH media, using NBS plates, by OD(600)
# Candida albicans = test: microbe, parasite or virus in culture; details: ATCC 90028, ASSAY_TEST Inhibition of Fungal Growth, detection method Absorption (OD530), plate type 384well, NBS, CORNING #3640
# Description: Antifungal activity against Candida albicans ATCC 90028 (CO-ADD:FG_001); MIC in YNB media using NBS plates, by OD630
# HEK293 = test: cells; assay type: functional, Homo sapiens, ATCC CRL1573; details: Homo sapiens, ATCC CRL1573, HEK293; ASSAY_TEST Inhibition of Cell Viability; detection method Resazurin; Fluorescence (ex560/em590); MEDIA DMEM with 10% FBS; plate type 384well; TC; CORNING #3712; time 18 hr
# Description for Cryptococcus neoformans: Antifungal activity against Cryptococcus neoformans H99 ATCC 208821 (CO-ADD:FG_002); MIC in YNB media using NBS plates, by Resazurin OD(600-570)
Compound,MIC (Acinetobacter baumannii) [µM],MIC (Klebsiella pneumoniae) [µM],MIC (Cryptococcus neoformans) [µM],MIC (Escherichia coli) [µM],MIC (Pseudomonas aeruginosa) [µM],MIC (Staphylococcus aureus) [µM],MIC (Candida albicans) [µM],CC50 (HEK293) [µM]
CN(C)c1ccc(O)c2c1C[C@H]1C[C@H]3[C@H](N(C)C)C(O)=C(C(N)=O)C(=O)[C@@]3(O)C(O)=C1C2=O [MINOCYCLINE HYDROCHLORIDE],> 10,> 10,> 10,2.5,0.312,0.312,> 10,0.0983
CC(=O)[C@]1(O)Cc2c(O)c3c(c(O)c2[C@@H](O[C@H]2C[C@H](N)[C@H](O)[C@H](C)O2)C1)C(=O)c1ccccc1C3=O [IDARUBICIN HYDROCHLORIDE],> 10,> 10,> 10,> 10,> 10,5,> 10,> 10
C/C(=C\C(=O)OCCCCCCCCC(=O)O)C[C@@H]1OC[C@H](C[C@@H]2O[C@H]2[C@@H](C)[C@H](C)O)[C@@H](O)[C@H]1O [MUPIROCIN],> 10,> 10,> 10,> 10,> 10,0.312,10,> 10
Clc1ccc(CO/N=C(\Cn2ccnc2)c2ccc(Cl)cc2Cl)c(Cl)c1 [OXICONAZOLE NITRATE],> 10,> 10,≤ 0.0781,> 10,> 10,> 10,≤ 0.0781,> 10
CN1CCN(c2c(F)cc3c(=O)c(C(=O)O)cn4c3c2SCC4)CC1,> 10,> 10,> 10,1.25,10,2.5,> 10,> 10
CN(CCCN1c2ccccc2CCc2ccccc21)CC(=O)c1ccc(Cl)cc1 [LOFEPRAMINE],> 10,> 10,> 10,> 10,> 10,> 10,> 10,> 10
CO[C@H]1/C=C/O[C@@]2(C)Oc3c(C)c(O)c4c(c3C2=O)C2=NC3(CCN(CC(C)C)CC3)NC2=C(NC(=O)/C(C)=C\C=C\[C@H](C)[C@H](O)[C@@H](C)[C@@H](O)[C@@H](C)[C@H](OC(C)=O)[C@@H]1C)C4=O [RIFABUTIN],10,> 10,> 10,5,0.156,≤ 0.0781,> 10,> 10
NC(=O)c1ncn(C2OC(CO)C(O)C2O)n1 (centres undefined),> 10,> 10,> 10,> 10,> 10,> 10,> 10,> 10
CCOC(=O)C1=C(C)NC(C)=C(C(=O)OCC)C1c1ccccc1/C=C/C(=O)OC(C)(C)C [LACIDIPINE],> 10,> 10,> 10,> 10,> 10,> 10,> 10,> 10
CCc1c2c(nc3ccc(OC(=O)N4CCC(N5CCCCC5)CC4)cc13)-c1cc3c(c(=O)n1C2)COC(=O)[C@]3(O)CC [IRINOTECAN HYDROCHLORIDE],> 10,> 10,> 10,> 10,> 10,> 10,> 10,0.341
O=C(NC(CO)C(O)c1ccc([N+](=O)[O-])cc1)C(Cl)Cl (centres undefined),> 10,> 10,> 10,10,> 10,> 10,> 10,> 10
CC1(C)SC2C(NC(=O)C(N)c3ccccc3)C(=O)N2C1C(=O)O (centres undefined),> 10,> 10,> 10,> 10,> 10,> 10,> 10,> 10
C[C@H]1O[C@H](O[C@H]2[C@H](O)[C@@H](O)[C@@H](O[C@H]3[C@H](O)[C@@H](O)C(O)O[C@@H]3CO)O[C@@H]2CO)[C@H](O)[C@@H](O)[C@@H]1N[C@H]1C=C(CO)[C@@H](O)[C@H](O)[C@H]1O (some centres undefined) [ACARBOSE],> 10,> 10,> 10,> 10,> 10,> 10,> 10,> 10
CC(=O)NC[C@H]1CN(c2ccc(N3CCOCC3)c(F)c2)C(=O)O1 [LINEZOLID],> 10,> 10,> 10,> 10,> 10,2.5,> 10,4.46
CN(C)[C@@H]1C(=O)C(C(N)=O)=C(O)[C@@]2(O)C(O)=C3C(=O)c4c(O)cccc4[C@@](C)(O)[C@H]3[C@H](O)[C@@H]12,> 10,> 10,> 10,5,10,1.25,> 10,> 10
COc1c(N2CCNC(C)C2)c(F)cc2c(=O)c(C(=O)O)cn(C3CC3)c12 (centres undefined) [GATIFLOXACIN],1.25,2.5,> 10,≤ 0.0781,0.625,0.312,> 10,> 10
Cc1onc(-c2ccccc2)c1C(=O)NC1C(=O)N2C1SC(C)(C)C2C(=O)O (centres undefined),> 10,> 10,> 10,> 10,> 10,> 10,> 10,> 10
COC(=O)Nc1nc2cc(C(=O)c3ccc(F)cc3)ccc2[nH]1 [FLUBENDAZOLE],> 10,> 10,> 10,> 10,> 10,> 10,> 10,7.02
COc1cccc2c1C(=O)c1c(O)c3c(c(O)c1C2=O)C[C@@](O)(C(=O)CO)C[C@@H]3O[C@H]1C[C@H](N)[C@@H](O)[C@H](C)O1 [EPIRUBICIN HYDROCHLORIDE],> 10,> 10,> 10,> 10,> 10,10,> 10,1.14
CCn1cc(C(=O)O)c(=O)c2cc(F)c(N3CCN(C)CC3)cc21 [PEFLOXACIN MESYLATE],10,5,> 10,0.156,1.25,1.25,> 10,> 10
CC1COc2c(N3CCN(C)CC3)c(F)cc3c(=O)c(C(=O)O)cn1c23 (centres undefined) [OFLOXACIN],5,5,> 10,≤ 0.0781,1.25,1.25,> 10,> 10
Nc1nc(=O)[nH]cc1F [FLUCYTOSINE],> 10,> 10,0.625,> 10,> 10,> 10,0.625,> 10
COc1cc2nc(N3CCN(C(=O)c4ccco4)CC3)nc(N)c2cc1OC,> 10,> 10,> 10,> 10,> 10,> 10,> 10,> 10
CCc1oc2ccccc2c1C(=O)c1cc(Br)c(O)c(Br)c1 [BENZBROMARONE],> 10,> 10,> 10,> 10,> 10,> 10,> 10,> 10
COc1cc(NC(C)CCCN)c2ncccc2c1 (centres undefined) [PRIMAQUINE PHOSPHATE],> 10,> 10,> 10,> 10,> 10,> 10,> 10,> 10
C[C@@H](c1ncncc1F)[C@](O)(Cn1cncn1)c1ccc(F)cc1F [VORICONAZOLE],> 10,> 10,0.625,> 10,> 10,> 10,≤ 0.0781,> 10
OC(Cn1cncn1)(Cn1cncn1)c1ccc(F)cc1F [FLUCONAZOLE],> 10,> 10,> 10,> 10,> 10,> 10,2.5,> 10
Oc1c(Cl)cc(Cl)c(Cl)c1Cc1c(O)c(Cl)cc(Cl)c1Cl [HEXACHLOROPHENE],> 10,> 10,> 10,> 10,> 10,5,> 10,> 10
